Reference: patent US20240285727A1, “NOVEL THERAPEUTIC PEPTIDES FOR NEURODEGENERATION” (UNIVERSITY OF SOUTHERN CALIFORNIA, priority 2021, published 2024)
Values belong to the molecule of their own block, whether it stands above or below them. Ends that are not written are not given here.

Legend:
[1] = test system: SHSY5Y; experiment: Analogue screening assay, measured by MTT; assay type: cell-based; settings: as a percentage compared to SHMOOSE (SHMOOSE activity as 100%)
Description: FIG. 10 depicts an analogue screening assay, measured by MTT. Top: each bar represents a fragment (25-amino acid in length) of SHMOOSE. Bottom: each bar represents a phosphomimetic fragment (25-amino acid in length) of SHMOOSE. Cell model is SHSY5Y. The Inventors made 103 analogues/derivatives (see Table 1).
The Inventors made 103 analogues (Table 1). Referring to FIG. 10, in the top figure, each bar represents a 25-amino acid fragment of the SHMOOSE peptide. […] The sequence length of the analogue is 14 amino acids and 3 different analysis windows of the analogue, each having 11 amino acids, were characterized. […]

[2] = test system: C57BL/6J mice fed a high fat diet; experiment: SHMOOSE in vivo: daily IP injections to mice fed a high fat diet, two weeks; design: species or system mouse
Description: The inventors also injected SHMOOSE intraperitoneally (IP) to 12-week-old C57BL/6J mice fed a high fat diet (i.e., a mild metabolic perturbation). At the conclusion of the two-week study, the inventors harvested brain and liver for RNA-Seq. As the inventors observed for SHMOOSE.D47N carriers and in in vitro experiments, 367 differentially expressed genes under a p adjusted value of 0.05 enriched mitochondrial and ribosomal terms in the liver (FIG. 3C). That is, liver expression differences were observed after SHMOOSE IP injections. Brain hypothalamus expression differences were also observed after SHMOOSE IP injections. Further, cortical expression differences were observed after SHMOOSE IP injections. However, while the inventors observed global gene expression changes as illustrated by PCA in the mouse cortex and hypothalamus, most enriched terms included central nervous system-related terms, not ribosomes nor mitochondrial specifics (FIG. 17). Furthermore, brain hippocampus expression differences were observed after SHMOOSE IP injections.
To examine the transcriptomes of mice treated with SHMOOSE, 12-week-old male […] mice were obtained from The Jackson Laboratory. Mice were fed a high fat diet for 10 days (60% total calories) prior to initiation of SHMOOSE daily IP injections (2.5 mg/kg). No more than 60 ul of volume were injected IP. […]

[3] = SHMOOSE pharmacokinetics after intraperitoneal injection; assay type: in vivo, mouse; settings: IP injected mice
Experimental: SHMOOSE pharmacokinetics was studied, where 2.5 mg SHMOOSE/kg in 25-week old C57/BI6 mice were intraperitoneally injected.

[4] = test system: SH-SY5Y cells; experiment: Amyloid beta toxicity assay (LIVE/DEAD viability); assay type: cell-based; settings: neuronal cells stressed with oligomerized amyloid beta 42 (1 uM); 10 uM peptide
Experimental: SH-SY5Y cells were differentiated for 4 days, incubated with 10 uM SHMOOSE or SHMOOSE.D47N for 24 hours followed by another incubation with SHMOOSE or SHMOOSE.D47N with or without oligomerized 1 uM amyloid beta 42 (CPC Scientific), prepared as formerly described. A two-color fluorescence cell viability assay (LIVE/DEAD Viability/Cytotoxicity Kit; Invitrogen (cat. L3224) was used to distinguish live cells from dead cells after […] and amyloid beta 42 treatment. The ratio of live to dead cells can be quantified since live cells retain the Calcein AM dye and dead cells with damaged membranes permit entry of the ethidium homodimer dye.

[5] = test system: SH-SY5Y cells; experiment: Seahorse assay (oxygen consumption rate); assay type: cell-based
Experimental: SH-SY5Y Cells were Plated into 96-Well Plates at a Density of 10,000 Cells. The following day, cells were differentiated for a total of 4 days. Thereafter, SHMOOSE or SHMOOSE.D47N were incubated for 24 hours, followed by cell real-time oxygen consumption rates measurements using XF96 Extracellular Flux Analyzer (Seahorse Bioscience). ATP turnover and maximum respiratory capacity were calculated after challenging cells with oligomycin and FCCP (carbonyl cyanide 4-[trifluoromethoxy]phenylhydrazone). Additionally, glycolytic rate was determined using extracellular acidification rate (ECAR) and individually reported relative to basal level in percentage. All readings were normalized to total DNA content using Hoechst 33342.

[6] = molecular target: T1, mitofilin (Homo sapiens, UniProt Q16891); experiment: SHMOOSE-mitofilin protein interaction (co-immunoprecipitation, reciprocal dot blot); assay type: binding; settings: reciprocal dot-based immunoblots, recombinant proteins
T1 construct: purchased OriGene
T1 sequence (Q16891 34-758): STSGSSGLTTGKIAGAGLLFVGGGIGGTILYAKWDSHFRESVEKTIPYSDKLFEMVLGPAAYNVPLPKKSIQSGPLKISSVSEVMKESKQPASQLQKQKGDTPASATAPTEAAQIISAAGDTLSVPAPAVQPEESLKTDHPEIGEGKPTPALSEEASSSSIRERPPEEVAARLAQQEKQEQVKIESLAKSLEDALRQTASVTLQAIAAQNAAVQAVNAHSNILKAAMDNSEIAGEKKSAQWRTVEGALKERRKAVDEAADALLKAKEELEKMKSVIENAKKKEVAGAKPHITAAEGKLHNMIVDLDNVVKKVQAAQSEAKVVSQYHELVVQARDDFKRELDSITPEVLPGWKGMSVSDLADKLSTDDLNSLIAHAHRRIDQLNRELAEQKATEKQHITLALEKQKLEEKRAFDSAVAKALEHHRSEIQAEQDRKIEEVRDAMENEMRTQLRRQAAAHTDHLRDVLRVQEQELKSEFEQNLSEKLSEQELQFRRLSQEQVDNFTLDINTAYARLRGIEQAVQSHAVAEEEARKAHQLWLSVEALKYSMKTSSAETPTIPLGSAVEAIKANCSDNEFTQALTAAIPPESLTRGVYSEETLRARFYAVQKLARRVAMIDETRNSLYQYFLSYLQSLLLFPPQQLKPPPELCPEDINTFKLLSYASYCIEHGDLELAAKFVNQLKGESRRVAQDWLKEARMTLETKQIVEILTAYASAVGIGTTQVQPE
Experimental: To identify the SHMOOSE interactome, multiple experiments were conducted. First, 1.5 nmol of SHMOOSE was spiked into 1 mg SH-SY5Y cell lysate for 6 hours at 4° C. Lysates were prepared using Thermo Pierce CoIP lysis buffer with 1× Thermo protease inhibitor cocktail and 1 mM PMSF. Briefly, cells were washed with ice-cold DPBS twice, lysed for 15 minutes on ice, and centrifuged for 10 minutes at 12,000 RCF at 4° C. The rationale for conducting this experiment was to ensure identical protein amounts between conditions and avoid differential protein expression caused by SHMOOSE treatment to cells. After 6 hours, SHMOOSE was immunoprecipitated from samples using Dynabeads A conjugated to 5 ug of custom c-terminus SHMOOSE antibody. As a negative control, SHMOOSE-spiked lysates were also immunoprecipitated using 5 ug rabbit IgG. Proteins were eluted from beads using 50 mM Glycine pH 2.8, and eluents were pH neutralized using Tris HCl pH 7.5. Complete eluents were then processed for protein identification using LC-MS. […] Statistical analysis of MaxQuant label-free quantitation data was performed with the artMS Bioconductor package, which performs the relative quantification of protein abundance using the MSstats Bioconductor package (default parameters). […]

[7] = molecular target: ATP5A1 (UniProt P25705 44-553, limits assumed); experiment: binding of SHMOOSE to ATP5 subunits (FIG. 9C/9D); method not described
[8] = molecular target: the molecule itself; experiment: Western blot of subcellular fractions of SHMOOSE-treated SH-SY5Y cells (FIG. 4A)
Experimental: Cytosolic, nuclear, and mitochondrial fractions were prepared from cultured SH-SY5Y cells. To extract nuclei, cells were washed in ice-cold DPBS and resuspended in fractionation buffer containing 10 mM HEPES pH 7.6, 3 mM MgCl2, 10 mM KCl, 5% (v/v) glycerol, 1% Triton-X100, and protease/phosphatase inhibitors for 15 minutes, followed by centrifugation for 5 minutes at 250×g and 4° C. The resulting supernatant was further centrifuged once more at 18,000×g for 10 minutes at 4° C. to obtain a relatively pure cytoplasmic fraction. The original pellet prior to the 18,000×g centrifugation was washed in 10 mM HEPES pH 7.6, 1.5 mM MgCl2, 10 mM KCl, and protease/phosphatase inhibitors and centrifuged at 250×g and 4° C. The washed pellet was then resuspended in nuclear extraction buffer containing 20 mM HEPES pH 7.6, 1.5 mM MgCl2, 420 mM NaCl, 25% (v/v) glycerol, 0.2 mM EDTA, and protease/phosphatase inhibitors, followed by three sonication periods of 5 seconds (separated by 10 seconds) with 30% amplitude on ice. The sonicated pellet was centrifuged at 18,000×g for 10 minutes at 4° C. to obtain a relatively pure nuclear lysate. To extract mitochondria, cells were washed in ice-cold DPBS and resuspended in 2 ml hypotonic buffer containing 10 mM NaCl, 1.5 mM MgCl2, and 10 mM Tris-HCl pH 7.5 for 7.5 minutes. […]

Chain of ATP5A1 (P25705 44-553 limits assumed): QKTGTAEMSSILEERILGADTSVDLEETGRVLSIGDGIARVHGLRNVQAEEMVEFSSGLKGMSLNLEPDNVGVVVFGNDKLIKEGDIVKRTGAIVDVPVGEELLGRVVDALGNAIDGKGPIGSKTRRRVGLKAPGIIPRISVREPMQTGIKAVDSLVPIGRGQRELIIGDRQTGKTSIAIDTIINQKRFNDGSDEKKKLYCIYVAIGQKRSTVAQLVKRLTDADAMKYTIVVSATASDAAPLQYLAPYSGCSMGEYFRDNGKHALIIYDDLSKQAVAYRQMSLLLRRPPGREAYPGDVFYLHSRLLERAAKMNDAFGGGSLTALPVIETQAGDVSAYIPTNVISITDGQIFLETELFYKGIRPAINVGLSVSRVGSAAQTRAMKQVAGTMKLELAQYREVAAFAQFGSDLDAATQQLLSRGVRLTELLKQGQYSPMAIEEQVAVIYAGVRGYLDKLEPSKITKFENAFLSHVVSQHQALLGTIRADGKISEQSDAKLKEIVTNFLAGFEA

Molecule: 107 (MPSCLTTWISSIISDNSYPLVLGPKNFGATPNKSNNHAHYYNHPNPDFPNSPHPYHPR) [compound 107]
% Efficacy [1]: 134.2%

Molecule: MPPCLTTWLSQLLKDNSYPLVLGPKNFGATPNKSNNHAHYYNHPNPDFPNSPHPYHPR [SHMOOSE]
toxic effects and behavior changes [2]: did not display toxic effects nor behavior changes | entry into circulation [3]: goes into the blood stream | half-life [3]: strong half-life

Second part, led by results:

binding to mitofilin [6]: confirming binding
Molecule: MPPCLTTWLSQLLKDNSYPLVLGPKNFGATPNKSNNHAHYYNHPNPNFPNSPHPYHPR [SHMOOSE.D47N]
protection against cell death [4]: did not similarly protect cells | basal cell oxygen consumption rate (in words) [5]: but not mutant SHMOOSE.D47N, boosts basal cell oxygen consumption rate | mitochondrial spare capacity ([5]; after oligomycin and FCCP, 24 hours incubation): boosted mitochondrial spare capacity

binding result [7]: no binding
B1: SHMOOSE (Small Human Mitochondrial Open reading frame Over the SErine-tRNA) peptide (peptide)
peptide: MPPCLTTWLSQLLKDNSYPLVLGPKNFGATPNKSNNHAHYYNHPNPDFPNSPHPYHPR
notes: Endogenous SHMOOSE in Western blots is treated as the same molecule; also called wild type SHMOOSE; synthetic SHMOOSE
binding result [8]: binds
